Laboratory results from ChEMBL document CHEMBL1201862, “PubChem BioAssay data set” (2004).
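Tested at 5 concentrations; 48 h exposure; 96-well plates; endpoints linearly interpolated, else capped at highest concentration. Abbreviation: GI50, concentration required for 50% inhibition of growth.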 Activity calls are given as the source filed them. Cut-off read from the data, not from the text of the source: active = GI50 up to about 1.1 µM and inactive = higher.

What was measured:
Assay in all cases: inhibition of tumour cell growth, NCI panel, 48 h
SNB-19 = tested on: SNB-19
A549 = tested on: A549
Malme-3M = tested on: Malme-3M
IGROV-1 = tested on: IGROV-1
U-251 = tested on: U-251
MDA-N = tested on: MDA-N
TK-10 = tested on: TK-10
OVCAR-5 = tested on: OVCAR-5
COLO 205 = tested on: COLO 205
SK-MEL-5 = tested on: SK-MEL-5
SNB-75 = tested on: SNB-75
RXF 393 = tested on: RXF 393
KM12 = tested on: KM12
NCI-H460 = tested on: NCI-H460
MOLT-4 = tested on: MOLT-4
UACC-62 = tested on: UACC-62
Hs-578T = tested on: Hs-578T
786-0 = tested on: 786-0
ACHN = tested on: ACHN
RPMI-8226 = tested on: RPMI-8226
EKVX = tested on: EKVX
M14 = tested on: M14
SW-620 = tested on: SW-620
T47D = tested on: T47D
SN12C = tested on: SN12C
MCF7 = tested on: MCF7
UO-31 = tested on: UO-31
CCRF-CEM = tested on: CCRF-CEM
HCT-15 = tested on: HCT-15
OVCAR-8 = tested on: OVCAR-8
SK-MEL-28 = tested on: SK-MEL-28
HCC 2998 = tested on: HCC 2998
UACC-257 = tested on: UACC-257
NCI-H226 = tested on: NCI-H226
SK-MEL-2 = tested on: SK-MEL-2
MDA-MB-231 = tested on: MDA-MB-231
PC-3 = tested on: PC-3
HCT-116 = tested on: HCT-116
NCI-H23 = tested on: NCI-H23
K562 = tested on: K562
A498 = tested on: A498
SR = tested on: SR
HOP-62 = tested on: HOP-62
HT-29 = tested on: HT-29
HOP-92 = tested on: HOP-92
HL-60 = tested on: HL-60
BT-549 = tested on: BT-549
SF-268 = tested on: SF-268
NCI/ADR-RES = tested on: NCI/ADR-RES
OVCAR-3 = tested on: OVCAR-3
CAKI-1 = tested on: CAKI-1
SK-OV-3 = tested on: SK-OV-3
SF-295 = tested on: SF-295
SF-539 = tested on: SF-539
NCI-H522 = tested on: NCI-H522
OVCAR-4 = tested on: OVCAR-4

NC(CCCCNC(=O)OCc1ccccc1)C(=O)NC(CCCCNC(=O)OCc1ccccc1)C(=O)ON1C(=O)CCC1=O (centres undefined)
GI50 (SNB-19): > 100 µM (inactive)
GI50 (A549): > 100 µM (inactive)
GI50 (Malme-3M): 61.4 µM (inactive)
GI50 (IGROV-1): > 100 µM (inactive)
GI50 (U-251): > 100 µM (inactive)
GI50 (MDA-N): > 100 µM (inactive)
GI50 (TK-10): > 100 µM (inactive)
GI50 (OVCAR-5): > 100 µM (inactive)
GI50 (COLO 205): > 100 µM (inactive)
GI50 (SK-MEL-5): > 100 µM (inactive)
GI50 (SNB-75): 27.2 µM (inactive)
GI50 (RXF 393): 52.7 µM (inactive)
GI50 (KM12): > 100 µM (inactive)
GI50 (NCI-H460): > 100 µM (inactive)
GI50 (MOLT-4): > 100 µM (inactive)
GI50 (UACC-62): > 100 µM (inactive)
GI50 (Hs-578T): > 100 µM (inactive)
GI50 (786-0): > 100 µM (inactive)
GI50 (ACHN): > 100 µM (inactive)
GI50 (RPMI-8226): > 100 µM (inactive)
GI50 (EKVX): > 100 µM (inactive)
GI50 (M14): > 100 µM (inactive)
GI50 (SW-620): > 100 µM (inactive)
GI50 (T47D): > 100 µM (inactive)
GI50 (SN12C): > 100 µM (inactive)
GI50 (MCF7): > 100 µM (inactive)
GI50 (UO-31): > 100 µM (inactive)
GI50 (CCRF-CEM): > 100 µM (inactive)
GI50 (HCT-15): > 100 µM
GI50 (OVCAR-8): > 100 µM (inactive)
GI50 (SK-MEL-28): > 100 µM (inactive)
GI50 (HCC 2998): > 100 µM (inactive)
GI50 (UACC-257): > 100 µM (inactive)
GI50 (NCI-H226): > 100 µM (inactive)
GI50 (SK-MEL-2): > 100 µM (inactive)
GI50 (MDA-MB-231): > 100 µM (inactive)
GI50 (PC-3): > 100 µM (inactive)
GI50 (HCT-116): > 100 µM (inactive)
GI50 (NCI-H23): > 100 µM (inactive)
GI50 (K562): > 100 µM (inactive)
GI50 (A498): > 100 µM (inactive)
GI50 (SR): > 100 µM (inactive)
GI50 (HOP-62): > 100 µM (inactive)
GI50 (HT-29): > 100 µM (inactive)
GI50 (HOP-92): > 100 µM (inactive)
GI50 (HL-60): > 100 µM (inactive)
GI50 (BT-549): > 100 µM (inactive)

Cc1ccc(C(=O)Nc2ccc(S(=O)(=O)O)c3cc(S(=O)(=O)O)cc(S(=O)(=O)O)c23)cc1NC(=O)c1cccc(N)c1
GI50 (SNB-19): > 100 µM (inactive)
GI50 (A549): > 100 µM (inactive)
GI50 (Malme-3M): 1.05 µM (active)
GI50 (SF-268): > 100 µM (inactive)
GI50 (IGROV-1): > 100 µM (inactive)
GI50 (U-251): > 100 µM (inactive)
GI50 (TK-10): > 100 µM (inactive)
GI50 (OVCAR-5): > 100 µM (inactive)
GI50 (NCI/ADR-RES): > 100 µM (inactive)
GI50 (COLO 205): > 100 µM (inactive)
GI50 (SK-MEL-5): > 100 µM (inactive)
GI50 (SNB-75): > 100 µM (inactive)
GI50 (RXF 393): > 100 µM (inactive)
GI50 (OVCAR-3): > 100 µM (inactive)
GI50 (KM12): > 100 µM (inactive)
GI50 (NCI-H460): > 100 µM (inactive)
GI50 (MOLT-4): > 100 µM (inactive)
GI50 (UACC-62): > 100 µM (inactive)
GI50 (Hs-578T): > 100 µM (inactive)
GI50 (786-0): > 100 µM (inactive)
GI50 (ACHN): > 100 µM (inactive)
GI50 (EKVX): > 100 µM (inactive)
GI50 (CAKI-1): > 100 µM (inactive)
GI50 (M14): > 100 µM (inactive)
GI50 (SW-620): > 100 µM (inactive)
GI50 (T47D): > 100 µM (inactive)
GI50 (SK-OV-3): > 100 µM (inactive)
GI50 (SN12C): > 100 µM (inactive)
GI50 (MCF7): > 100 µM (inactive)
GI50 (UO-31): > 100 µM (inactive)
GI50 (CCRF-CEM): > 100 µM (inactive)
GI50 (HCT-15): > 100 µM
GI50 (OVCAR-8): > 100 µM (inactive)
GI50 (SK-MEL-28): > 100 µM (inactive)
GI50 (HCC 2998): > 100 µM (inactive)
GI50 (UACC-257): > 100 µM (inactive)
GI50 (NCI-H226): > 100 µM (inactive)
GI50 (SK-MEL-2): 73.8 µM (inactive)
GI50 (MDA-MB-231): > 100 µM (inactive)
GI50 (SF-295): > 100 µM (inactive)
GI50 (PC-3): > 100 µM (inactive)
GI50 (SF-539): > 100 µM (inactive)
GI50 (NCI-H23): > 100 µM (inactive)
GI50 (K562): > 100 µM (inactive)
GI50 (A498): > 100 µM (inactive)
GI50 (NCI-H522): > 100 µM (inactive)
GI50 (SR): > 100 µM (inactive)
GI50 (OVCAR-4): > 100 µM (inactive)
GI50 (HOP-62): > 100 µM (inactive)
GI50 (HT-29): > 100 µM (inactive)
GI50 (HL-60): > 100 µM (inactive)
GI50 (BT-549): > 100 µM (inactive)
